Experimental data from patent publication US12077503B2, “Substituted cyclic amides and their use as herbicides” (FMC CORPORATION, priority 2015, dated 2024).

Experiments:
Assay type in all cases: in vivo
[1] = system: pigweed (Amaranthus retroflexus); assay: Test A preemergence; details: Preemergence; for Plant response rating, Pigweed: 125 g ai/ha, visual injury after approximately 10 d, 0 to 100 scale where 0 is no effect and 100 is complete control; for Pigweed plant response rating (0 to 100 scale, 0 is no effect, 100 is complete control): 500 g ai/ha, visual injury approx. 10 d
[2] = system: barnyardgrass (Echinochloa crus-galli); assay: Test A preemergence; details: Preemergence; for Plant response rating, Barnyardgrass: 125 g ai/ha, visual injury after approximately 10 d, 0 to 100 scale where 0 is no effect and 100 is complete control; for Barnyardgrass plant response rating (0 to 100 scale, 0 is no effect, 100 is complete control): 500 g ai/ha, visual injury approx. 10 d
Outline: (§1)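 Treatment is preemergence as a directed soil spray after planting, or postemergence at the one- to two-leaf stage, with test chemical in a non-phytotoxic solvent mixture plus surfactant. Plants stay in the greenhouse about 10 d before visual injury scoring on a 0 to 100 scale versus untreated controls.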

Kochia (Kochia scoparia) [3] = assay: Test A preemergence; details: Preemergence; for Plant response rating, Kochia: 125 g ai/ha, visual injury after approximately 10 d, 0 to 100 scale where 0 is no effect and 100 is complete control; for Kochia plant response rating (0 to 100 scale, 0 is no effect, 100 is complete control): 500 g ai/ha, visual injury approx. 10 d
Outline: as §1

[4] = system: ragweed (common ragweed, Ambrosia elatior); assay: Test A preemergence; details: Preemergence; for Plant response rating, Ragweed: 125 g ai/ha, visual injury after approximately 10 d, 0 to 100 scale where 0 is no effect and 100 is complete control; for Ragweed plant response rating (0 to 100 scale, 0 is no effect, 100 is complete control): 500 g ai/ha, visual injury approx. 10 d
Outline: as §1

[5] = system: ryegrass, Italian (Italian ryegrass, Lolium multiflorum); assay: Test A preemergence; details: Preemergence; for Plant response rating, Ryegrass, Italian: 125 g ai/ha, visual injury after approximately 10 d, 0 to 100 scale where 0 is no effect and 100 is complete control; for Ryegrass, Italian plant response rating (0 to 100 scale, 0 is no effect, 100 is complete control): 500 g ai/ha, visual injury approx. 10 d
Outline: as §1

[6] = system: giant foxtail (Setaria faberii); assay: Test A preemergence; details: Preemergence; for Plant response rating, Foxtail, Giant: 125 g ai/ha, visual injury after approximately 10 d, 0 to 100 scale where 0 is no effect and 100 is complete control; for Foxtail, Giant plant response rating (0 to 100 scale, 0 is no effect, 100 is complete control): 500 g ai/ha, visual injury approx. 10 d
Outline: as §1

[7] = system: ducksalad (Heteranthera limosa); assay: Test B flooded paddy test; details: Flood, 0 to 100 scale where 0 is no effect and 100 is complete control, 13 to 15 d
Outline: (§2)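 Percent control, visually estimated after 13–15 d in the greenhouse on a 0–100 basis, compares treated pots with untreated ones; compound was put into paddy water 3 cm above the soil when plants had two leaves.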

[8] = system: barnyardgrass (Echinochloa crus-galli); assay: Test B flooded paddy test; details: Flood, 0 to 100 scale where 0 is no effect and 100 is complete control, 13 to 15 d
Outline: as §2

[9] = system: sedge, umbrella (small-flower umbrella sedge, Cyperus difformis); assay: Test B flooded paddy test; details: Flood, 0 to 100 scale where 0 is no effect and 100 is complete control, 13 to 15 d
Outline: as §2

rice (Oryra sativa) = assay: Test B flooded paddy test; details: Flood, 0 to 100 scale where 0 is no effect and 100 is complete control, 13 to 15 d
Outline: as §2

[10] = system: pigweed (Amaranthus retroflexus); assay: Test A postemergence
Outline: as §1

[11] = system: barnyardgrass (Echinochloa crus-galli); assay: Test A postemergence; details: for Barnyardgrass plant response rating: 125 g ai/ha, postemergence, visual injury rating on 0 to 100 scale (0 no effect, 100 complete control), approx. 10 d; for Plant response rating, Barnyardgrass: Postemergence, 500 g ai/ha, 0 to 100 scale where 0 is no effect and 100 is complete control
Outline: as §1

Kochia (Kochia scoparia) [12] = assay: Test A postemergence
Outline: as §1

[13] = system: Galium (catchweed bedstraw, Galium aparine); assay: Test A postemergence
Outline: as §1

[14] = system: ragweed (common ragweed, Ambrosia elatior); assay: Test A postemergence
Outline: as §1

corn (Zea mays) = assay: Test A postemergence
Outline: as §1

[15] = system: wheat (Triticum aestivum); assay: Test A postemergence
Outline: as §1

[16] = system: blackgrass (Alopecurus myosuroides); assay: Test A postemergence; details: for Blackgrass plant response rating: 125 g ai/ha, postemergence, visual injury rating on 0 to 100 scale (0 no effect, 100 complete control), approx. 10 d; for Plant response rating, Blackgrass: Postemergence, 500 g ai/ha, 0 to 100 scale where 0 is no effect and 100 is complete control
Outline: as §1

[17] = system: ryegrass, Italian (Italian ryegrass, Lolium multiflorum); assay: Test A postemergence
Outline: as §1

[18] = system: giant foxtail (Setaria faberii); assay: Test A postemergence
Outline: as §1

[19] = 125 g ai/ha, postemergence, visual rating after approx. 10 d, 0 to 100 scale (0 no effect, 100 complete control)
[20] = Postemergence, 500 g ai/ha, 0 to 100 scale where 0 is no effect and 100 is complete control

| Compound | Plant response rating, Pigweed [1] | Pigweed plant response rating (0 to 100 scale, 0 is no effect, 100 is complete control) [1] | Plant response rating, Barnyardgrass [2] | Barnyardgrass plant response rating (0 to 100 scale, 0 is no effect, 100 is complete control) [2] | Plant response rating, Kochia (Kochia (Kochia scoparia) [3]) | Kochia plant response rating (0 to 100 scale, 0 is no effect, 100 is complete control) (Kochia (Kochia scoparia) [3]) | Plant response rating, Ragweed [4] | Plant response rating, Ryegrass, Italian [5] | Ryegrass, Italian plant response rating (0 to 100 scale, 0 is no effect, 100 is complete control) [5] | Plant response rating, Foxtail, Giant [6] | Foxtail, Giant plant response rating (0 to 100 scale, 0 is no effect, 100 is complete control) [6] | Plant response rating, Pigweed [10, 19] | Plant response rating, Pigweed [10, 20] | Barnyardgrass plant response rating [11] | Plant response rating, Barnyardgrass [11] | Plant response rating, Kochia (Kochia (Kochia scoparia) [12]; [19]) | Plant response rating, Kochia (Kochia (Kochia scoparia) [12]; [20]) | Plant response rating, Galium [13, 19] | Plant response rating, Galium [13, 20] | Plant response rating, Ragweed [14, 19] | also measured |
| --- | --- | --- | --- | --- | --- | --- | --- | --- | --- | --- | --- | --- | --- | --- | --- | --- | --- | --- | --- | --- | --- |
| O=C1NCC(c2ccc(Oc3ccccc3)cc2)C1C(=O)Nc1ccc(F)cc1F (racemic) [Compound 535] | 0 | 0 | 0 | 0 | 0 | 0 | 0 | 0 | 0 | 0 | 0 | 0 | 0 | 0 | 0 | 0 | 0 | 0 | 0 | 0 | Ragweed plant response rating (0 to 100 scale, 0 is no effect, 100 is complete control) [4]: 0; Plant response rating, Ducksalad ([7]; 500 g ai/ha): 20; Plant response rating, Barnyardgrass ([8]; 500 g ai/ha): 0; Plant response rating, Sedge, Umbrella ([9]; 500 g ai/ha): 50; Plant response rating, Rice (rice (Oryra sativa); 500 g ai/ha): 0; Plant response rating, Ragweed [14, 20]: 0; Plant response rating, Corn (corn (Zea mays); [19]): 0; Plant response rating, Corn (corn (Zea mays); [20]): 0; Plant response rating, Wheat [15, 19]: 0; Plant response rating, Wheat [15, 20]: 0; Blackgrass plant response rating [16]: 0; Plant response rating, Blackgrass [16]: 0; Plant response rating, Ryegrass, Italian [17, 19]: 0; Plant response rating, Ryegrass, Italian [17, 20]: 0; Plant response rating, Foxtail, Giant [18, 19]: 0; Plant response rating, Foxtail, Giant [18, 20]: 0 |
| COc1c(F)ccc(NC(=O)C2C(=O)NCC2c2cccc(OC(F)(F)C(F)F)c2)c1F (racemic) [Compound 540] | 0 | 60 | 80 | 90 | 0 | 20 | 0 | 0 | 40 | 90 | 90 | 0 | 0 | 60 | 70 | 0 | 0 | 60 | 70 | 0 | Plant response rating, Ducksalad ([7]; 250 g ai/ha): 75; Plant response rating, Barnyardgrass ([8]; 250 g ai/ha): 55; Plant response rating, Sedge, Umbrella ([9]; 250 g ai/ha): 0; Plant response rating, Rice (rice (Oryra sativa); 250 g ai/ha): 0; Plant response rating, Ragweed [14, 20]: 20; Plant response rating, Corn (corn (Zea mays); [19]): 30; Plant response rating, Corn (corn (Zea mays); [20]): 60; Plant response rating, Wheat [15, 19]: 0; Plant response rating, Wheat [15, 20]: 60; Blackgrass plant response rating [16]: 50; Plant response rating, Blackgrass [16]: 60; Plant response rating, Ryegrass, Italian [17, 19]: 0; Plant response rating, Ryegrass, Italian [17, 20]: 30; Plant response rating, Foxtail, Giant [18, 19]: 70; Plant response rating, Foxtail, Giant [18, 20]: 90 |
| O=C1NCC(c2cc(F)ccc2F)C1C(=O)Nc1ccccc1F (racemic) [Compound 544] | 0 | 0 | 30 | 80 | 0 | 0 | 0 | 0 | 0 | 70 | 90 | 0 | 0 | 20 | 70 | 0 | 0 | 0 | 0 | 0 | Ragweed plant response rating (0 to 100 scale, 0 is no effect, 100 is complete control) [4]: 0; Plant response rating, Ducksalad ([7]; 250 g ai/ha): 45; Plant response rating, Barnyardgrass ([8]; 250 g ai/ha): 25; Plant response rating, Sedge, Umbrella ([9]; 250 g ai/ha): 0; Plant response rating, Rice (rice (Oryra sativa); 250 g ai/ha): 0; Plant response rating, Ragweed [14, 20]: 0; Plant response rating, Corn (corn (Zea mays); [19]): 0; Plant response rating, Corn (corn (Zea mays); [20]): 20; Plant response rating, Wheat [15, 19]: 0; Plant response rating, Wheat [15, 20]: 0; Blackgrass plant response rating [16]: 0; Plant response rating, Blackgrass [16]: 0; Plant response rating, Ryegrass, Italian [17, 19]: 0; Plant response rating, Ryegrass, Italian [17, 20]: 0; Plant response rating, Foxtail, Giant [18, 19]: 0; Plant response rating, Foxtail, Giant [18, 20]: 60 |
